The source of these data is PubChem BioAssay (NCI).

Common to all, as to assay: DTP human tumour cell line panel, 48 h
Assay [1] concerns TK-10 renal.
For assay [2], the system named is A549 NSCLC.
The subject of assay [3] is M19-MEL melanoma.
For assay [4], the system named is RXF 393 renal.
In assay [5] the test system is SK-MEL-28 melanoma.
The subject of assay [6] is CAKI-1 renal.
For assay [7], the system named is NCI-H522 lung.
Assay [8] relates to HT29 colon.
The test system of assay [9] is UO-31 renal.
The test system of assay [10] is OVCAR-4 ovarian.
Assay [11] deals with SR leukemia.
In assay [12] the test system is A498 renal.
The test system of assay [13] is HL-60(TB) leukemia.
Assay [14] concerns M14 melanoma.
In assay [15] the test system is KM12 colon.
The subject of assay [16] is EKVX NSCLC.
The subject of assay [17] is SF-539 CNS.
Assay [18] relates to 786-0 renal.
Assay [19] relates to OVCAR-5 ovarian.

Molecules are shown by their SMILES.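 Cells were grown in 96-well plates and exposed to each compound for 48 hours at five concentrations; endpoints were interpolated linearly between bracketing concentrations, or set to the highest concentration if not reached. TGI is the concentration that stops growth completely.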 Some results are limits rather than exact numbers.

`CCCCCCCCCCCCCCCCCC(=O)OCC(C[As](=O)(O)O)OC(=O)CCCCCCCCCCCCCCCCC` (stereo not drawn): the TGI in assay [1] was greater than 100 µM; in assay [2], greater than 100 µM; in assay [3], greater than 100 µM; in assay [4], 47 µM; in assay [5], greater than 100 µM; in assay [6] it was greater than 100 µM. Besides, the TGI was greater than 100 µM in assay [7]; greater than 100 µM in assay [8]; greater than 100 µM in assay [9]; greater than 100 µM in [10]; 38.9 µM in assay [11]; greater than 100 µM in assay [12]. In addition, the TGI in assay [13], in [14], in assay [15], in assay [16], in assay [17] and in assay [18] was greater than 100 µM throughout. The total growth inhibition concentration (TGI) in assay [19] was greater than 100 µM.
With `CC(=O)OC1CC2C(C)(C)C(=O)C=C[C@]2(C)C2CCC3(C)C(c4ccoc4)[C@@H](O)[C@H]4O[C@]43[C@]12C` (stereo partly drawn), the TGI in assay [1] came out at 88.7 µM; in [2] it was 85.7 µM; in [3] it was 36.5 µM; in [4], 35.5 µM; in assay [5] it was 40.5 µM; in assay [6] it was 45.6 µM. Besides, the TGI in [7] came to 28 µM; in assay [8], 40.3 µM; in assay [9] it was 31.8 µM; in assay [10], 38.8 µM; in assay [11], 41.4 µM; in assay [12] it was 49.7 µM. The concentration for total growth inhibition (TGI) was 46.7 µM in assay [13]; 37.7 µM in assay [14]; 35.1 µM in [15]; greater than 100 µM in [16]; 34.2 µM in [17]; 31.4 µM in [18]. In assay [19], this compound displayed a concentration for total growth inhibition (TGI) of 50 µM.

The term TGI denotes the concentration giving total growth inhibition. A lower TGI goes with greater sensitivity of the cells.
